System: J774.A1
Assay: cells
Settings: Mus musculus, J774.A1, 24 h
Description: Antiinflammatory activity against mouse J774.A1 cells assessed as inhibition of LPS-stimulated IL-6 release measured for 24 hrs by ELISA method
For O=C(NCCCN1CCOCC1)c1cc(Oc2ccc(NC(=O)c3cn(-c4ccc(Br)cc4)c4ccccc4c3=O)cc2F)ccn1, the IC50 was 6.16 µM.

System: not listed separately
Assay: Cytotoxicity against mouse J774.A1 cells assessed as survival rate at 10 uM measured for 48 hrs by MTT assay relative to control
Settings: not given
O=C(NCCc1cccs1)c1cc(Oc2ccc(NC(=O)c3cn(-c4ccc(F)c(Cl)c4)c4ccccc4c3=O)cc2F)ccn1 gave a viability at 48 h, 10 µM of 77.7%. For O=C(NCCCN1CCOCC1)c1cc(Oc2ccc(NC(=O)c3cn(-c4ccccc4)c4ccccc4c3=O)cc2F)ccn1, the viability at 48 h, 10 µM was 83.2%. Work on O=C(NCCCN1CCOCC1)c1cc(Oc2ccc(NC(=O)c3cn(-c4ccc(F)cc4)c4ccccc4c3=O)cc2F)ccn1 yielded a viability at 48 h, 10 µM of 94.1%. In the case of O=C(NCCc1cccs1)c1cc(Oc2ccc(NC(=O)c3cn(-c4ccc(F)cc4)c4ccccc4c3=O)cc2F)ccn1, the viability at 48 h, 10 µM is reported as over 100%. With O=C(NCCc1cccs1)c1cc(Oc2ccc(NC(=O)c3cn(-c4ccc(F)c(Cl)c4)c4ccccc4c3=O)cc2)ccn1 the viability at 48 h, 10 µM was over 100%. With O=C(NCCCN1CCOCC1)c1cc(Oc2ccc(NC(=O)c3cn(-c4ccc(Br)cc4F)c4ccccc4c3=O)cc2)ccn1 the viability at 48 h, 10 µM was 92.2%. COc1ccc(-n2cc(C(=O)Nc3ccc(Oc4ccnc(C(=O)NCCc5cccs5)c4)cc3)c(=O)c3ccccc32)cc1 gave a viability at 48 h, 10 µM of 88.3%. With COc1ccc(-n2cc(C(=O)Nc3ccc(Oc4ccnc(C(=O)NCCCN5CCOCC5)c4)c(F)c3)c(=O)c3ccccc32)cc1 the viability at 48 h, 10 µM was 22.9%. Work on O=C(NCCCN1CCOCC1)c1cc(Oc2ccc(NC(=O)c3cn(-c4ccc(Br)cc4F)c4ccccc4c3=O)cc2F)ccn1 yielded a viability at 48 h, 10 µM of 90.7%. In the case of O=C(NCCCN1CCOCC1)c1cc(Oc2ccc(NC(=O)c3cn(-c4ccc(Br)cc4)c4ccccc4c3=O)cc2F)ccn1, the viability at 48 h, 10 µM is reported as 91.3%. Work on O=C(NCCc1cccs1)c1cc(Oc2ccc(NC(=O)c3cn(-c4ccc(Br)cc4F)c4ccccc4c3=O)cc2)ccn1 yielded a viability at 48 h, 10 µM of 92.8%. For O=C(NCCCN1CCOCC1)c1cc(Oc2ccc(NC(=O)c3cn(-c4ccc(F)c(Cl)c4)c4ccccc4c3=O)cc2F)ccn1, the viability at 48 h, 10 µM was over 100%. O=C(NCCCN1CCOCC1)c1cc(Oc2ccc(NC(=O)c3cn(-c4ccc(Br)cc4)c4ccccc4c3=O)cc2)ccn1 showed a viability at 48 h, 10 µM of over 100%. Compound O=C(NCCCN1CCOCC1)c1cc(Oc2ccc(NC(=O)c3cn(-c4ccc(Cl)cc4)c4ccccc4c3=O)cc2F)ccn1 has a viability at 48 h, 10 µM of 77.8%. Work on O=C(NCCc1cccs1)c1cc(Oc2ccc(NC(=O)c3cn(-c4ccc(Cl)cc4)c4ccccc4c3=O)cc2F)ccn1 yielded a viability at 48 h, 10 µM of 7.46%. In the case of COc1ccc(-n2cc(C(=O)Nc3ccc(Oc4ccnc(C(=O)NCCCN5CCOCC5)c4)cc3)c(=O)c3ccccc32)cc1, the viability at 48 h, 10 µM is reported as 87%. With O=C(NCCc1cccs1)c1cc(Oc2ccc(NC(=O)c3cn(-c4ccc(Br)cc4)c4ccccc4c3=O)cc2)ccn1 the viability at 48 h, 10 µM was 84.4%. With O=C(NCCCN1CCOCC1)c1cc(Oc2ccc(NC(=O)c3cn(-c4ccc(Cl)cc4)c4ccccc4c3=O)cc2)ccn1 the viability at 48 h, 10 µM was over 100%. With O=C(NCCCN1CCOCC1)c1cc(Oc2ccc(NC(=O)c3cn(-c4ccc(F)cc4)c4ccccc4c3=O)cc2)ccn1 the viability at 48 h, 10 µM was 87.1%. With COc1ccc(-n2cc(C(=O)Nc3ccc(Oc4ccnc(C(=O)NCCc5cccs5)c4)c(F)c3)c(=O)c3ccccc32)cc1 the viability at 48 h, 10 µM was 85.3%. For O=C(NCCc1cccs1)c1cc(Oc2ccc(NC(=O)c3cn(-c4ccccc4)c4ccccc4c3=O)cc2)ccn1, the viability at 48 h, 10 µM was 72%. O=C(NCCCN1CCOCC1)c1cc(Oc2ccc(NC(=O)c3cn(-c4ccccc4)c4ccccc4c3=O)cc2)ccn1 showed a viability at 48 h, 10 µM of 82.7%. Compound O=C(NCCc1cccs1)c1cc(Oc2ccc(NC(=O)c3cn(-c4ccc(Br)cc4F)c4ccccc4c3=O)cc2F)ccn1 has a viability at 48 h, 10 µM of 97.1%. For O=C(NCCc1cccs1)c1cc(Oc2ccc(NC(=O)c3cn(-c4ccc(Br)cc4)c4ccccc4c3=O)cc2F)ccn1, the viability at 48 h, 10 µM was 84.3%. O=C(NCCc1cccs1)c1cc(Oc2ccc(NC(=O)c3cn(-c4ccccc4)c4ccccc4c3=O)cc2F)ccn1 gave a viability at 48 h, 10 µM of 99.8%. With COc1cc(/C=C/C(=O)CC(=O)/C=C/c2ccc(O)c(OC)c2)ccc1O [CURCUMIN] the viability at 48 h, 10 µM was 94.9%. Compound O=C(NCCCN1CCOCC1)c1cc(Oc2ccc(NC(=O)c3cn(-c4ccc(F)c(Cl)c4)c4ccccc4c3=O)cc2)ccn1 has a viability at 48 h, 10 µM of over 100%. In the case of O=C(NCCc1cccs1)c1cc(Oc2ccc(NC(=O)c3cn(-c4ccc(Cl)cc4)c4ccccc4c3=O)cc2)ccn1, the viability at 48 h, 10 µM is reported as 86.2%.

— ChEMBL document CHEMBL6134838, “Discovery of c-Kit as a New Therapeutic Target in LPS-Induced Acute Lung Injury through Novel Phenylamide Derivative D9” (J Med Chem, 2025)
